Source: US20250353864A1, “INDAZOLE CONTAINING MACROCYCLES AND THEIR USE” (BLOSSOMHILL THERAPEUTICS, INC., priority 2022, published 2025)

Experiments:
Format in all cases: biochemical
[1] = target: EGFR WT (Homo sapiens (Human), UniProt P00533); test: HotSpot radiometric kinase assay (Reaction Biology), EGFR WT; conditions: 10 μM ATP
In short: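 10 μM ATP (33P-labelled, final); 120 min RT; P81 filter capture, 0.75% phosphoric acid washes. Cpd preincubated ~20 min with enzyme/substrate, 20 mM Hepes pH 7.5, 10 mM MgCl2, 1% DMSO. IC50 by curve fit.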

[2] = target: EGFR (D770_N771insNPG) (Homo sapiens (Human), UniProt P00533, INS770NPG); test: HotSpot radiometric kinase assay, EGFR (D770_N771insNPG); conditions: 10 μM ATP, read-out: EGFR (Δ770_N771insNPG) IC50
EGFR (D770_N771insNPG), sequence (P00533 other isoform, or with tags, fused parts or gaps del 1-668/ins NPG behind 770 limits assumed): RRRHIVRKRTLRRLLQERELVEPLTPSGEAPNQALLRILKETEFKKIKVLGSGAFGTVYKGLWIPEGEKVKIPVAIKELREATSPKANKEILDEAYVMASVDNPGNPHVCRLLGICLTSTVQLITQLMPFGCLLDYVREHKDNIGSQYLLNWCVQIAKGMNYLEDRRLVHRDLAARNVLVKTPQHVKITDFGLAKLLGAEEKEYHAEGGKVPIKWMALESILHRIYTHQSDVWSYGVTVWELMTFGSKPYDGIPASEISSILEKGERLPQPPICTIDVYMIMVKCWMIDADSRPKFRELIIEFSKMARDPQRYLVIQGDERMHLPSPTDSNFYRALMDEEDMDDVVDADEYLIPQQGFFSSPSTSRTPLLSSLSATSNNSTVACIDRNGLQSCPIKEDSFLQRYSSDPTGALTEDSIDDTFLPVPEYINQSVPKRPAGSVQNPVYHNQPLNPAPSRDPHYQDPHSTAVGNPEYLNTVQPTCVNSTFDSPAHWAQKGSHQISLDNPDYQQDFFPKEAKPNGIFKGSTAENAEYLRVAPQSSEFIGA
In short: (§1)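 Radiometric filter-binding read-out: incorporated 33P was retained on P81 ion-exchange paper after washing away unbound phosphate. Reactions ran 120 min at room temperature with 10 μM final ATP, following ~20 min compound preincubation in Hepes pH 7.5 buffer containing 1% DMSO. IC50 from fitted curves.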

[3] = target: EGFR Δ746-750 mutant (Homo sapiens (Human), UniProt P00533, DEL746-750); test: HotSpot radiometric kinase assay, EGFR Δ746-750 mutant; conditions: 10 μM ATP
EGFR Δ746-750 mutant, sequence (P00533 other isoform, or with tags, fused parts or gaps del 1-668/del 746-750 limits assumed): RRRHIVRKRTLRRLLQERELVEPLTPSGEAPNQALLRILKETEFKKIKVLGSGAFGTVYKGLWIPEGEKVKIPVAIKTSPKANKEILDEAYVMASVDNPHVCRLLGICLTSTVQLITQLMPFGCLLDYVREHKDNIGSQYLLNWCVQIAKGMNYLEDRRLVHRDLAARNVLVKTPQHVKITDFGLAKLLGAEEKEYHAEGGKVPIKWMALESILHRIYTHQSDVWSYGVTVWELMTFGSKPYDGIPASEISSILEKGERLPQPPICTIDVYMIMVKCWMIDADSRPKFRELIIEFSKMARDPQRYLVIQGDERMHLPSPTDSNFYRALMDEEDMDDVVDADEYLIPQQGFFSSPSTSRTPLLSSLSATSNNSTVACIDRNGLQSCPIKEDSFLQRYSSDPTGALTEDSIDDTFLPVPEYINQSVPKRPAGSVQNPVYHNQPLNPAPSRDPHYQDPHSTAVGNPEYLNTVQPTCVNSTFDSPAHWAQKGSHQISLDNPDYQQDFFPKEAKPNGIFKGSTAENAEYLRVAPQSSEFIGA
In short: as §1

[4] = target: EGFR Δ746-750/C797S mutant (Homo sapiens (Human), UniProt P00533, C797S/DEL746-750); test: HotSpot radiometric kinase assay, EGFR Δ746-750/C797S mutant; conditions: 10 μM ATP
In short: as §1

[5] = target: EGFR L858R mutant (Homo sapiens (Human), UniProt P00533, L858R); test: HotSpot radiometric kinase assay, EGFR L858R mutant; conditions: 10 μM ATP
In short: as §1

[6] = target: EGFR L858R/T790M mutant (Homo sapiens (Human), UniProt P00533, L858R/T790M); test: HotSpot radiometric kinase assay, EGFR L858R/T790M mutant; conditions: 10 μM ATP
In short: as §1

[7] = target: EGFR L858R/T790M/C797S mutant (Homo sapiens (Human), UniProt P00533, C797S/L858R/T790M); test: HotSpot radiometric kinase assay, EGFR L858R/T790M/C797S mutant; conditions: 10 μM ATP
EGFR L858R/T790M/C797S mutant, sequence (P00533 25-1210 T790M/C797S/L858R): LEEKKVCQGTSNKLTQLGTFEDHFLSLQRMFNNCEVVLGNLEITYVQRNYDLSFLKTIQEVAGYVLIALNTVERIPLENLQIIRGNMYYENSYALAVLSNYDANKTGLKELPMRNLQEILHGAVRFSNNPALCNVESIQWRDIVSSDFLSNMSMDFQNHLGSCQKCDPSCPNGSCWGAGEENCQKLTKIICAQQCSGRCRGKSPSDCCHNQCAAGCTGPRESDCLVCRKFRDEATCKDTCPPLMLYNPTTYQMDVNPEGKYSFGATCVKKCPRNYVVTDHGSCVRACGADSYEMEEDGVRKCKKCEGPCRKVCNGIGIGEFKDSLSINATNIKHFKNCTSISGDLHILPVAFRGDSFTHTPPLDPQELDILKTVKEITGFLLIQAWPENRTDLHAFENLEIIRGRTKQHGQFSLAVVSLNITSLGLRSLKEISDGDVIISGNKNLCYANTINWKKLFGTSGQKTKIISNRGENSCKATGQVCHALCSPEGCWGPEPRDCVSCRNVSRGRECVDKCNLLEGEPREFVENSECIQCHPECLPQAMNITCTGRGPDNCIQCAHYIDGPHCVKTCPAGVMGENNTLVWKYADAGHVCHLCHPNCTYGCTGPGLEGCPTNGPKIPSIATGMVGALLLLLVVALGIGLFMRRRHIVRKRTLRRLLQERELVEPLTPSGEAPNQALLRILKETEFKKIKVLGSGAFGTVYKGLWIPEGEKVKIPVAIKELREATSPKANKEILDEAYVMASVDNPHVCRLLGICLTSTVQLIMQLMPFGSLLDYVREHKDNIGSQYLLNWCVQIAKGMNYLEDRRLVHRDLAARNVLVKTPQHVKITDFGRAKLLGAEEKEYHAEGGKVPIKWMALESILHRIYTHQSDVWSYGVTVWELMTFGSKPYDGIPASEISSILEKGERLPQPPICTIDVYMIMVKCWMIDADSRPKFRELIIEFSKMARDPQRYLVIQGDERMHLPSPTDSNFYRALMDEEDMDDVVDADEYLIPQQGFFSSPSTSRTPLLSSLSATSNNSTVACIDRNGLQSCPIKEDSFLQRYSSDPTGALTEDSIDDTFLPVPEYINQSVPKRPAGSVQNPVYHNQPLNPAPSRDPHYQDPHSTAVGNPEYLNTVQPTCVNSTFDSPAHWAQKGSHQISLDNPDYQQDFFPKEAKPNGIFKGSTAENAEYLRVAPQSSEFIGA
In short: as §1

[8] = target: CLK1 (Homo sapiens (Human), UniProt P49759); test: Inhibition of CLK1 kinase activity evaluated at Nanosyn (ADP-Glo); conditions: ADP-Glo luminescence
CLK1, sequence (P49759 whole entry): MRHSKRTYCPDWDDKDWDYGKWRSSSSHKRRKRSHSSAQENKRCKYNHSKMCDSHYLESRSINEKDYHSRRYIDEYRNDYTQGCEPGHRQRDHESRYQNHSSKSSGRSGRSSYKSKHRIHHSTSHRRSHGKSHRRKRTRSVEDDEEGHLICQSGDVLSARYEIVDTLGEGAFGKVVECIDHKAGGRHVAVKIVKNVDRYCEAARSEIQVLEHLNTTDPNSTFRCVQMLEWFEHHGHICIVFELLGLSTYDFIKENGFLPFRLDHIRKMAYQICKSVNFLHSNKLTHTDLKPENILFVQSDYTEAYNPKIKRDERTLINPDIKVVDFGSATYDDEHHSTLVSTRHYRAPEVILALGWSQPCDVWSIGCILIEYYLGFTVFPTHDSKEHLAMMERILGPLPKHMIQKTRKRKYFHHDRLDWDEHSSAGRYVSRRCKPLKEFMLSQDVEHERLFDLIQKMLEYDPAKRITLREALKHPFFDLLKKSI
In short: (§2)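 Percent inhibition derived from luminescent ADP detection (ADP-Glo), normalised to DMSO-only and enzyme-free wells. Reactions ran in HEPES pH 7.5 buffer with Mg2+, Triton X-100 and BSA, 1% DMSO, ATP-initiated, for an assay-specific time.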

[9] = target: CLK2 (Homo sapiens (Human), UniProt P49760); test: Inhibition of CLK2 kinase activity evaluated at Nanosyn (ADP-Glo); conditions: ADP-Glo luminescence
CLK2, sequence (P49760 whole entry): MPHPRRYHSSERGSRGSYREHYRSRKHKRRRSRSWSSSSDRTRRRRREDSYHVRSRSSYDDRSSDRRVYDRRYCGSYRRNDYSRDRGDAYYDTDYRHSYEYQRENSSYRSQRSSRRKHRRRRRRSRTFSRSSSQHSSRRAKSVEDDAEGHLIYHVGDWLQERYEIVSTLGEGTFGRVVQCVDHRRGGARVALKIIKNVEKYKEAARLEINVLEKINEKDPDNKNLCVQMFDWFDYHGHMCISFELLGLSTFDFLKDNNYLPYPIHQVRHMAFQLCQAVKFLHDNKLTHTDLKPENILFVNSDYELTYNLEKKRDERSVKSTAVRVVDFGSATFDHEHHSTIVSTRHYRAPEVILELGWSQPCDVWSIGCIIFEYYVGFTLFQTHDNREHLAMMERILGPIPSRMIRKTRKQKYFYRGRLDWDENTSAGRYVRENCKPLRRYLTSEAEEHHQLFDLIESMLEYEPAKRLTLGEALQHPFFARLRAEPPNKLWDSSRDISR
In short: as §2

[10] = target: CLK3 (Homo sapiens (Human), UniProt P49761); test: Inhibition of CLK3 kinase activity evaluated at Nanosyn (ADP-Glo); conditions: ADP-Glo luminescence
In short: as §2

[11] = target: CLK4 (Homo sapiens (Human), UniProt Q9HAZ1); test: Inhibition of CLK4 kinase activity evaluated at Nanosyn (ADP-Glo); conditions: ADP-Glo luminescence
CLK4, sequence (Q9HAZ1 whole entry): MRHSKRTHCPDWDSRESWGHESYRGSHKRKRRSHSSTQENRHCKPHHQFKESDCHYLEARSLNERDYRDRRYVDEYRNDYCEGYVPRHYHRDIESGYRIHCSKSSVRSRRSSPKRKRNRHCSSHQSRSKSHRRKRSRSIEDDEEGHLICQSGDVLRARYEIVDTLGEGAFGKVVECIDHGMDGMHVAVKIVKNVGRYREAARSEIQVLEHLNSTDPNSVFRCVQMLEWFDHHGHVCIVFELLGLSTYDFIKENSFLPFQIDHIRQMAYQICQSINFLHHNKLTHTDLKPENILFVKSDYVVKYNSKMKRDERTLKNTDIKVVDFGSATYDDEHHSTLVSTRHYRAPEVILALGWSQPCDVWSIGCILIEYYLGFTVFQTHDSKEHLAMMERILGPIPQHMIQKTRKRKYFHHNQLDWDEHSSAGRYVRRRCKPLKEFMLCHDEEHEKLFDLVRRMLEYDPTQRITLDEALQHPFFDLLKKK
In short: as §2

EGFR WT, sequence (P00533 25-1210): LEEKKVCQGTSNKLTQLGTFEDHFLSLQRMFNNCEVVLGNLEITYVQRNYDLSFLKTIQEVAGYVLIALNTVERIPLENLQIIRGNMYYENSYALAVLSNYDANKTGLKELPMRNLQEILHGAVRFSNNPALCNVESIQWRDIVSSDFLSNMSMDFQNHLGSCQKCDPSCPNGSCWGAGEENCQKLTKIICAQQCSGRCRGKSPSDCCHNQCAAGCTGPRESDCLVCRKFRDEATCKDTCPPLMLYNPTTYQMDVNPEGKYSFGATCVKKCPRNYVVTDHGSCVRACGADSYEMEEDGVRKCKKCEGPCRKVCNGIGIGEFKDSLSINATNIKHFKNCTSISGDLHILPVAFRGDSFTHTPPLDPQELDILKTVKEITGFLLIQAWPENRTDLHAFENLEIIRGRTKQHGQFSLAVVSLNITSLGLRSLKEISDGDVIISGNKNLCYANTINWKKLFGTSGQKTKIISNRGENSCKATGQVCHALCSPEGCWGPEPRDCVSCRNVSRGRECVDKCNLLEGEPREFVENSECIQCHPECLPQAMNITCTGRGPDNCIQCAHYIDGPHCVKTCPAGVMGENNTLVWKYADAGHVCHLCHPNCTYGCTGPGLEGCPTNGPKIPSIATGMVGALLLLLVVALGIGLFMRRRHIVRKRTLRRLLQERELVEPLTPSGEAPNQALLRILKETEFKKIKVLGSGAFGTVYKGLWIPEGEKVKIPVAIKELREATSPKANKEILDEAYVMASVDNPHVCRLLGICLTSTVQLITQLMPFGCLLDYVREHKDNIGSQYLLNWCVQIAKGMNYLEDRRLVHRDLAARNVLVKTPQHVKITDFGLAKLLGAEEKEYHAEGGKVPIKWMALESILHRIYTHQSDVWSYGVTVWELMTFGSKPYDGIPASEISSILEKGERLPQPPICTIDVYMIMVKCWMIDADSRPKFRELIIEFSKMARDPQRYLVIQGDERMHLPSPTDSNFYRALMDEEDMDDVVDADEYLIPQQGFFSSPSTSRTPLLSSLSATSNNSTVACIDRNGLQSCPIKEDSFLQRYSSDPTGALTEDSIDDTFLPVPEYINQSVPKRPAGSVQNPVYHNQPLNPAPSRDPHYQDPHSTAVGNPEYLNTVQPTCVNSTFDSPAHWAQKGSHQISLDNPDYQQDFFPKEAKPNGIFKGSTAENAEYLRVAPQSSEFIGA

CCOc1nn(CCO)c2c1/C=C/c1n[nH]c3ccc(cc13)-c1c(C)nn(C)c1O[C@@H](C)CN(C(C)C)C2 [Example 142, 2-[(10S,17E)-16-ethoxy-6,8,10-trimethyl-12-(propan-2-yl)-2,8,10,11,12,13-hexahydro-14H-3,5-ethenotripyrazolo[3,4-f:3′,4′-j:4″,3″- n][1,4]oxazacyclopentadecin-14-yl]ethan-1-ol]
IC50 [1]: 2.14 nM
IC50 [2]: 16.7 nM
IC50 [3]: 1.11 nM
IC50 [4]: 1.32 nM
IC50 [5]: 0.9 nM
IC50 [6]: 1.29 nM
IC50 [7]: 1.83 nM
IC50 [8]: 11.9 nM
IC50 [9]: 13.9 nM
IC50 [10]: 1000 nM
IC50 [11]: 5.91 nM

Cc1nn(C)c2c1/C=C/c1n[nH]c3ccc(cc13)-c1cnn(C)c1OCCN1CC[C@@H](O2)C1=O [Example 109, (10R,15E)-3,12,14-trimethyl-5,6,9,10,12,18-hexahydro-3H,8H-19,21-etheno-7,10-methanotripyrazolo[3,4-i:3′,4′-m:4″,3″-q][1,8,4]dioxazacyclooctadecin-24-one]
IC50 [1]: 856 nM
IC50 [2]: 298 nM
IC50 [3]: 38 nM
IC50 [4]: 152 nM
IC50 [5]: 165 nM
IC50 [6]: 15.9 nM
IC50 [7]: 47.1 nM
IC50 [8]: 0.46 nM
IC50 [9]: 0.09 nM
IC50 [10]: 2 nM
IC50 [11]: 0.85 nM

C[C@H]1CN(C)Cc2c(c(OC3CCN(S(C)(=O)=O)CC3)nn2C)/C=C/c2n[nH]c3ccc(cc23)-c2cnn(C)c2O1 [Example 143, (10S,17E)-16-{[1-(methanesulfonyl)piperidin-4-yl]oxy}-8,10,12,14-tetramethyl-2,10,11, 12,13,14-hexahydro-8H-3,5-ethenotripyrazolo[3,4-f 3′,4′-j:4″,3″-n][1,4]oxazacyclopentadecine]
IC50 [1]: 320 nM
IC50 [2]: 1630 nM
IC50 [3]: 39.4 nM
IC50 [4]: 41.3 nM
IC50 [5]: 39.6 nM
IC50 [6]: 1.58 nM
IC50 [7]: 4.63 nM
IC50 [8]: 0.19 nM
IC50 [9]: 0.02 nM
IC50 [10]: 12.1 nM
IC50 [11]: 0.61 nM

Cc1nn(CCO)c2c1/C=C/c1n[nH]c3cc(F)c(cc13)-c1cnn(C)c1O[C@@H](C)CN(C)C2 [Example 116, 2-[(10S,17E)-19-fluoro-8,10,12,16-tetramethyl-2,8,10,11,12,13-hexahydro-14H-3,5-ethenotripyrazolo[3,4-f:3′,4′-j:4″,3″-n][1,4]oxazacyclopentadecin-14-yl]ethan-1-ol]
IC50 [1]: 3.98 nM
IC50 [2]: 18.5 nM
IC50 [3]: 1.06 nM
IC50 [4]: 2.85 nM
IC50 [5]: 0.58 nM
IC50 [6]: 0.38 nM
IC50 [7]: 2.71 nM
IC50 [8]: 0.11 nM
IC50 [9]: 0.04 nM
IC50 [10]: 10.9 nM
IC50 [11]: 0.4 nM

Cc1c2c(nn1C)/C=C/c1n[nH]c3ccc(cc13)-c1cnn(C)c1O[C@@H](C)CN(C)C2 [Example 126, (10S,17E)-8,10,12,14,15-pentamethyl-2,10,11,12,13,15-hexahydro-8H-3,5-ethenotripyrazolo[4,3-f:3′,4′-j:4″,3″-n][1,4]oxazacyclopentadecine]
IC50 [1]: 164 nM
IC50 [2]: 133 nM
IC50 [3]: 16.1 nM
IC50 [4]: 19.8 nM
IC50 [5]: 18.6 nM
IC50 [6]: 2.07 nM
IC50 [7]: 2.8 nM
IC50 [8]: 0.32 nM
IC50 [9]: 0.12 nM
IC50 [10]: 188 nM
IC50 [11]: 0.49 nM

Cc1c2c(nn1C[C@H](C)O)CN(C)C[C@H](C)Oc1c(cnn1C)-c1ccc3[nH]nc(c3c1)/C=C/2 [Example 124, (2S)-1-[(10S,17E)-8,10,12,16-tetramethyl-2,8,10,11,12,13-hexahydro-15H-3,5-ethenotripyrazolo[3,4-f:3′,4′-j:4″,3″-n][1,4]oxazacyclopentadecin-15-yl]propan-2-ol]
IC50 [1]: 168 nM
IC50 [2]: 140 nM
IC50 [3]: 18.3 nM
IC50 [4]: 13.9 nM
IC50 [5]: 18.3 nM
IC50 [6]: 3.32 nM
IC50 [7]: 2.32 nM
IC50 [8]: 0.15 nM
IC50 [9]: 0.29 nM
IC50 [10]: 186 nM
IC50 [11]: 0.37 nM

CCOc1nn(C)c2c1/C=C/c1n[nH]c3ccc(cc13)-c1cnn(C)c1O[C@@H]1CCN(C2)C1 [Example 236, (10R,18E)-17-ethoxy-8,15-dimethyl-2,8,11,12,14,15-hexahydro-10H-3,5-etheno-10,13-methanotripyrazolo[3,4-g:3′,4′-k:4″,3″- o][1,5]oxazacyclohexadecine]
IC50 [1]: 26.8 nM
IC50 [2]: 68.9 nM
IC50 [3]: 5.11 nM
IC50 [4]: 11.5 nM
IC50 [5]: 12 nM
IC50 [6]: 0.8 nM
IC50 [7]: 1.06 nM
IC50 [8]: 0.66 nM
IC50 [9]: 1.73 nM
IC50 [10]: 397 nM
IC50 [11]: 1.03 nM

CC(C)Oc1nn(CCO)c2c1/C=C/c1n[nH]c3ccc(cc13)-c1cnn(C3CC3)c1O[C@@H](C)CN(C)C2 [Example 246, 2-{(10S,17E)-8-cyclopropyl-10,12-dimethyl-16-[(propan-2-yl)oxy]-2,8,10,11,12,13-hexahydro-14H-3,5-ethenotripyrazolo[3,4-f:3′,4′-j:4″,3″-n][1,4]oxazacyclopentadecin-14-yl}ethan-1-ol]
IC50 [1]: 23.3 nM
IC50 [2]: 39.5 nM
IC50 [3]: 8.71 nM
IC50 [4]: 3.18 nM
IC50 [5]: 5.14 nM
IC50 [6]: 1.71 nM
IC50 [7]: 4.42 nM
IC50 [8]: 0.75 nM
IC50 [9]: 1.36 nM
IC50 [10]: 386 nM
IC50 [11]: 1.33 nM

C[C@H](C#N)Oc1nn(CCO)c2c1/C=C/c1n[nH]c3cc(F)c(cc13)-c1cnn(C)c1O[C@@H](C)CN(C)C2 [Ex. 268, (2R)-2-{[(10S,17E)-19-fluoro-14-(2-hydroxyethyl)-8,10,12-trimethyl-2,10,11,12,13,14-hexahydro-8H-3,5-ethenotripyrazolo[3,4-f:3′,4′-j:4″,3″-n][1,4]oxazacyclopentadecin-16-yl]oxy}propanenitrile]
IC50 [1]: 7.91 nM
IC50 [2]: 30.5 nM
IC50 [3]: 2.01 nM
IC50 [4]: 1.32 nM
IC50 [5]: 4.35 nM
IC50 [6]: 1.04 nM
IC50 [7]: 0.52 nM
IC50 [8]: 0.57 nM
IC50 [9]: 0.18 nM
IC50 [10]: 45.1 nM
IC50 [11]: 1.22 nM

CC(C)Oc1nn(CCO)c2c1/C=C/c1n[nH]c3cc(F)c(cc13)-c1cnn(C)c1O[C@H](C)CN(C(C)C)C2 [Example 195, 2-{(10R,17E)-19-fluoro-8,10-dimethyl-12-(propan-2-yl)-16-[(propan-2-yl)oxy]-2,8,10,11,12,13-hexahydro-14H-3,5-ethenotripyrazolo[3,4-f:3′,4′-j:4″,3″- n][1,4]oxazacyclopentadecin-14-yl}ethan-1-ol]
IC50 [1]: 99.7 nM
IC50 [2]: 156 nM
IC50 [3]: 18.6 nM
IC50 [4]: 8.68 nM
IC50 [5]: 39.9 nM
IC50 [6]: 6.18 nM
IC50 [7]: 3.67 nM
IC50 [8]: 36.6 nM
IC50 [9]: 53.5 nM
IC50 [10]: 435 nM
IC50 [11]: 22.3 nM

CCOc1noc2c1/C=C/c1n[nH]c3ccc(cc13)-c1cnn(C)c1O[C@@H](C)CN(C)C2 [Example 183, (10S,17E)-16-ethoxy-8,10,12-trimethyl-2,8,10,11,12,13-hexahydro-3,5-etheno[1,2]oxazolo[5,4-f]dipyrazolo[3,4-j:4′,3′-n][1,4]oxazacyclopentadecine]
IC50 [1]: 195 nM
IC50 [2]: 534 nM
IC50 [3]: 53.8 nM
IC50 [4]: 17.7 nM
IC50 [5]: 61.5 nM
IC50 [6]: 0.65 nM
IC50 [7]: 1.05 nM
IC50 [8]: 0.82 nM
IC50 [9]: 0.24 nM
IC50 [10]: 155 nM
IC50 [11]: 1.83 nM

C[C@H]1CN(C)Cc2onc(C3CC3)c2/C=C/c2n[nH]c3ccc(cc23)-c2cnn(C)c2O1 [Example 173, (10S,17E)-16-cyclopropyl-8,10,12-trimethyl-2,8,10,11,12,13-hexahydro-3,5-etheno[1,2]oxazolo[5,4-f]dipyrazolo[3,4-j:4′,3′-n][1,4]oxazacyclopentadecine]
IC50 [1]: > 1000 nM
IC50 [2]: > 1000 nM
IC50 [3]: 533 nM
IC50 [4]: 127 nM
IC50 [5]: 513 nM
IC50 [6]: 45.5 nM
IC50 [7]: 27.4 nM
IC50 [8]: 0.7 nM
IC50 [9]: 0.89 nM
IC50 [10]: 1000 nM
IC50 [11]: 1.26 nM
